{
  "source": "patent US9993001B2",
  "about": "“Herbicidal composition” (ISHIHARA SANGYO KAISHA, LTD., priority 2014, dated 2018)",
  "format_in_all_cases": "in vivo",
  "key": {"[1]": {"test_system": "Nepalese Smartweed (Persicaria nepalensis (Meisn.) H. Gross)", "assay": "Test Example 6: adzuki bean field, soil treatment, metobromuron + S-metolachlor", "conditions": "soil, read-out: Growth inhibition rate of Nepalese Smartweed (%) Measured value", "description": "(§1) When the herbicidal activity in a case where two active ingredients are combined, is larger than the simple sum of the respective herbicidal activities of the two active ingredients (the expected activity), it is called a synergistic effect. The activity expected by the combination of two active ingredients can be calculated as follows (Colby S. R., “Weed”, vol. 15, p. 20-22, 1967). E=α+β−(α×β[…]) where α: growth inhibition rate when treated with x (g/ha) of herbicide X, • β: growth inhibition rate when treated with y (g/ha) of herbicide Y, • E: growth inhibition rate expected when treated with x (g/ha) of herbicide X and y (g/ha) of herbicide Y.\n(§2) On the 19th day after treatment, the state of growth of barnyardgrass was visually observed and evaluated in accordance with the following standards. The growth inhibition rate (%) [measured value] and the growth inhibition rate (%) [calculated value] calculated by the Colby's method, are shown in Table 2.\n(§3) Growth inhibition rate (%)=inhibition rate) (%) of 0 (equivalent to the non-treated area) to 100 (complete kill)\nIn an adzuki bean agricultural field (9.6 square meters per one test section), predetermined amounts of SC containing metobromuron as active ingredient (same as in Test Example 1) and EC containing S-metolachlor as active ingredient (same as in Test Example 2) were diluted with water corresponding to 1,000 L per hectare and applied for soil treatment, prior to germination of adzuki bean and weeds.\nOn the 39th day after treatment, the state of growth of Nepalese Smartweed (Persicaria nepalensis (Meisn.) H. Gross) which occurred naturally, was visually observed and evaluated in the same manner as in Test Example 1."}, "[2]": {"test_system": "barnyardgrass (Echinochloa crus-qalli L.)", "assay": "Test Example 21: pot, soil treatment, metobromuron + prometryn", "conditions": "soil, read-out: Growth inhibition rate of barnyardgrass (%) Measured value", "description": "as §1, §2, §3\n(§4) Soil was put into a 1/300,000 ha pot, and seeds of barnyardgrass (Echinochloa crus-qalli L.) were sown. On the day after seeding, predetermined amounts of SC containing metobromuron as active ingredient (same as in Test Example 1) and WP containing prometryn as active ingredient (trade name: Gesagard 50, manufactured by Nippon Kayaku Co., Ltd.) were diluted with water corresponding to 1,000 L per hectare and applied for soil treatment.\n(§5) On the 21st day after treatment, the state of growth of barnyardgrass was visually observed and evaluated in the same manner as in Test Example 1."}, "[3]": {"test_system": "black nightshade (Solanum nigrum L.)", "assay": "Test Example 17: pot, soil treatment, metobromuron + chlorpropham", "conditions": "soil, read-out: Growth inhibition rate of black nightshade (%) Measured value", "description": "as §1, §2, §3\nas §4, with “crus-galli” for “crus-qalli”, “EC” for “WP”, “chlorpropham” for “prometryn”, “(same as in Test Example 1)” for “(trade name: Gesagard 50, manufactured by Nippon Kayaku Co., Ltd.)”\nas §5\nThe test was carried out in the same manner as in Test Example 15 except that barnyardgrass (Echinochloa crus-galli L.) was changed to black nightshade (Solanum nigrum L.), to obtain the results as shown in Table 18."}, "[4]": {"test_system": "barnyardgrass (Echinochloa crus-qalli L.)", "assay": "Test Example 5: adzuki bean field, soil treatment, metobromuron + fluazifop-P-butyl", "conditions": "Echinochloa, soil, read-out: Growth inhibition rate of barnyardgrass (%) Measured value", "description": "as §1, §2\n(§6) Growth inhibition rate (%)=inhibition rate) (%) of 0 (equivalent to the non-treated area) to 100 (complete kill) […]\nOn the 39th day after treatment, the state of growth of barnyardgrass (Echinochloa crus-qalli L.) which occurred naturally, was visually observed and evaluated in the same manner as in Test Example 1."}, "[5]": {"test_system": "common lambsquarters (Chenopodium album L.)", "assay": "Test Example 30: pot, soil treatment, metobromuron + thiobencarb", "conditions": "soil, read-out: Growth inhibition rate of common lambsquarters (%) Measured value", "description": "as §1, §2, §3\nas §4, with “common lambsquarters (Chenopodium album” for “barnyardgrass (Echinochloa crus-qalli”, “EC” for “WP”, “thiobencarb” for “prometryn”, “Saturn NYUZAI,” for “Gesagard 50,”, “KUMIAI CHEMICAL INDUSTRY” for “Nippon Kayaku”\n(§7) On the 20th day after treatment, the state of growth of common lambsquarters was visually observed and evaluated in the same manner as in Test Example 1."}, "[6]": {"test_system": "large crabgrass (Diqitaria sanquinalis L.)", "assay": "Test Example 22: pot, soil treatment, metobromuron + prometryn", "conditions": "Digitaria sanguinalis, soil, read-out: Growth inhibition rate of large crabgrass (%) Measured value", "description": "as §1, §2, §3, §4, §5\nThe test was carried out in the same manner as in Test Example 21 except that barnyardgrass (Echinochloa crus-qalli L.) was changed to large crabgrass (Diqitaria sanquinalis L.), to obtain the results as shown in Table 23."}, "[7]": {"test_system": "large crabgrass (Digitaria sanquinalis L.)", "assay": "Test Example 29: pot, soil treatment, metobromuron + indanofan", "conditions": "soil, read-out: Growth inhibition rate of large crabgrass (%) Measured value", "description": "as §1, §2, §3\nSoil was put into a 1/300,000 ha pot, and seeds of large crabgrass (Digitaria sanquinalis L.) were sown. On the day after seeding, predetermined amounts of SC containing metobromuron as active ingredient (same as in Test Example 1) and WP containing indanofan as active ingredient were diluted with water corresponding to 1,000 L per hectare and applied for soil treatment.\nOn the 20th day after treatment, the state of growth of large crabgrass was visually observed and evaluated in the same manner as in Test Example 1."}, "[8]": {"test_system": "black nightshade (Solanum nigrum L.)", "assay": "Test Example 31: pot, soil treatment, metobromuron + thiobencarb", "conditions": "soil, read-out: Growth inhibition rate of black nightshade (%) Measured value", "description": "as §1, §2, §3\nas §4, with “common lambsquarters (Chenopodium album” for “barnyardgrass (Echinochloa crus-qalli”, “EC” for “WP”, “thiobencarb” for “prometryn”, “Saturn NYUZAI,” for “Gesagard 50,”, “KUMIAI CHEMICAL INDUSTRY” for “Nippon Kayaku”\nas §7\nThe test was carried out in the same manner as in Test Example 30 except that common lambsquarters (Chenopodium album L.) was changed to black nightshade (Solanum nigrum L.), to obtain the results as shown in Table 32."}, "[9]": {"test_system": "barnyardgrass (Echinochloa crus-qalli L.)", "assay": "Test Example 4: soybean field, soil treatment, metobromuron + trifluralin", "conditions": "soil, read-out: Growth inhibition rate of barnyardgrass (%) Measured value", "description": "as §1, §2, §6\nOn the 50th day after treatment, the state of growth of barnyardgrass (Echinochloa crus-qalli L.) which occurred naturally, was visually observed and evaluated in the same manner as in Test Example 1."}},
  "data": [
    {"compound": "CON(C)C(=O)Nc1ccc(Br)cc1", "note": "[Metobromuron, 3-(4-bromophenyl)-1-methoxy-1-methylurea]", "values": [
      {"measurement": "inhibition at 1000 g/ha", "setting": "[1]", "result": 35, "unit": "%"},
      {"measurement": "inhibition at 1500 g/ha", "setting": "[1]", "result": 40, "unit": "%"},
      {"measurement": "inhibition at 750 g/ha", "setting": "[2]", "result": 20, "unit": "%"},
      {"measurement": "inhibition at 1000 g/ha", "setting": "[2]", "result": 43, "unit": "%"},
      {"measurement": "inhibition at 1500 g/ha", "setting": "[2]", "result": 72, "unit": "%"},
      {"measurement": "inhibition at 1000 g/ha", "setting": "[3]", "result": 78, "unit": "%"},
      {"measurement": "inhibition at 1000 g/ha", "setting": "[4]", "result": 53, "unit": "%"},
      {"measurement": "inhibition at 250 g/ha", "setting": "[5]", "result": 78, "unit": "%"},
      {"measurement": "inhibition at 750 g/ha", "setting": "[6]", "result": 33, "unit": "%"},
      {"measurement": "inhibition at 1000 g/ha", "setting": "[6]", "result": 50, "unit": "%"},
      {"measurement": "inhibition at 250 g/ha", "setting": "[7]", "result": 30, "unit": "%"},
      {"measurement": "inhibition at 375 g/ha", "setting": "[7]", "result": 50, "unit": "%"},
      {"measurement": "inhibition at 562.5 g/ha", "setting": "[7]", "result": 80, "unit": "%"},
      {"measurement": "inhibition at 375 g/ha", "setting": "[8]", "result": 65, "unit": "%"},
      {"measurement": "inhibition at 562.5 g/ha", "setting": "[8]", "result": 76, "unit": "%"},
      {"measurement": "inhibition at 1000 g/ha", "setting": "[9]", "result": 30, "unit": "%"}
    ]}
  ]
}
